Measured values taken from ChEMBL document CHEMBL1151138, “3'-prenyl-4'-methoxy-isoflavone-7-O-beta-D-(2''-O-p-coumaroyl) glucopyranoside, a novel phytoestrogen from Sopubia delphinifolia” (1990).
Activity calls are given as the source filed them. No cut-off for these calls is given here.

How the values were obtained:
Rattus norvegicus [1] = assay: Estrogenic activity in albino rat assessed as uterus weight at 10 ug, po administered twice daily measured after 4 days; assay type: functional
Rattus norvegicus [2] = assay: Estrogenic activity in albino rat assessed as uterus weight at 20 ug, po administered twice daily measured after 4 days; assay type: functional
Rattus norvegicus [3] = assay: Estrogenic activity in albino rat assessed as uterus weight at 50 ug, po administered twice daily measured after 4 days; assay type: functional
Rattus norvegicus [4] = assay: Estrogenic activity in albino rat assessed as vaginal openings at 10 ug, po administered twice daily measured after 4 days relative to control; assay type: functional, organism-based
Rattus norvegicus [5] = assay: Estrogenic activity in albino rat assessed as vaginal openings at 50 ug, po administered twice daily measured after 4 days relative to control; assay type: functional

COc1ccc(-c2coc3cc(O[C@@H]4O[C@H](CO)[C@@H](O)[C@H](O)[C@H]4OC(=O)/C=C/c4ccc(O)cc4)ccc3c2=O)cc1CC=C(C)C was tested, and the Activity (Rattus norvegicus [1]) was 18%, the Activity (Rattus norvegicus [2]) was 27.79% and the Activity (Rattus norvegicus [3]) was 33.21%. The Activity (Rattus norvegicus [4]) was “inactive” and the Activity (Rattus norvegicus [5]) was 100%.
